Measurements taken from US11878975B2, “Substituted indole compounds useful as TLR inhibitors” (BRISTOL-MYERS SQUIBB COMPANY, priority 2017, dated 2024).

Experiments:
Format in all cases: cell-based
[1] = biological target: T1, human TLR8 (Homo sapiens, UniProt Q9NR97); assay: TLR8 inhibition reporter assay (HEK-Blue cells, SEAP reporter, R848 stimulation); details: HEK-Blue cells overexpressing human TLR8, SEAP reporter, R848 15.9 μM
T1 construct: host or cells: HEK-Blue cells
T1 sequence (Q9NR97 27-1041): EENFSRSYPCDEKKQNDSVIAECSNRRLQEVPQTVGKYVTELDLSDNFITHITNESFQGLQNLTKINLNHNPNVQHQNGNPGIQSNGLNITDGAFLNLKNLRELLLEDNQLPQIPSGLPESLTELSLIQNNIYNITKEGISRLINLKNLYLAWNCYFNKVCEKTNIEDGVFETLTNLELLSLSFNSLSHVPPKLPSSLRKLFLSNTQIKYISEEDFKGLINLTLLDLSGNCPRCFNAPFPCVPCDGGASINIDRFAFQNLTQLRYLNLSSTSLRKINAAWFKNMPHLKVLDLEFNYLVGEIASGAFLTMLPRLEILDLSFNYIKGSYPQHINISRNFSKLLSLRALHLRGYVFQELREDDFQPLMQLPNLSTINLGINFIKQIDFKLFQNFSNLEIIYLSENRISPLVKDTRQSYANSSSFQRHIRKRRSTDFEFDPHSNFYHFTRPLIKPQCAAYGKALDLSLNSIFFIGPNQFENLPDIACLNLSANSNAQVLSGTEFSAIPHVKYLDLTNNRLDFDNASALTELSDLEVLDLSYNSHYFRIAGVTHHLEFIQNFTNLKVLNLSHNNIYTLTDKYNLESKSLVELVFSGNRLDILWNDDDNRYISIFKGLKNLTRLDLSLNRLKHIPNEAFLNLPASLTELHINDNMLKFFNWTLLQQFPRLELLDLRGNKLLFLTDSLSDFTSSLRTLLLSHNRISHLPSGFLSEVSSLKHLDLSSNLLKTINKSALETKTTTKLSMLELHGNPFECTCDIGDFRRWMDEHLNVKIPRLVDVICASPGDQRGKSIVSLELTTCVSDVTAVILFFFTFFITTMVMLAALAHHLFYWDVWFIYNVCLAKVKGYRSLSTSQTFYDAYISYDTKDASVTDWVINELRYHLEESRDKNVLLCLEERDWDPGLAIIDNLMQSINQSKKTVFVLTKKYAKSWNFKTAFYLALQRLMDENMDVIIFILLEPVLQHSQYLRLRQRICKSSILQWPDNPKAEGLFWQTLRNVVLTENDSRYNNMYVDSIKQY
Summary of the method: (§1)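 Ligand levels: TLR7 gardiquimod 7.5 μM, TLR8 R848 15.9 μM, TLR9 ODN2006 5 nM, added after 30 min room-temperature compound pre-incubation at 0.05 nM-50 μM. Reporter SEAP read with HEK-Blue Detection reagent after 22 h, 37° C. Inhibition expressed as % reduction relative to agonist-plus-DMSO and known-inhibitor controls.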

[2] = biological target: T2, human TLR9 (Homo sapiens, UniProt Q9NR96); assay: TLR9 inhibition reporter assay (HEK-Blue cells, SEAP reporter, ODN2006 stimulation); details: HEK-Blue cells overexpressing human TLR9, SEAP reporter, ODN2006 5 nM
T2 construct: host or cells: HEK-Blue cells
T2 sequence (Q9NR96 26-1032): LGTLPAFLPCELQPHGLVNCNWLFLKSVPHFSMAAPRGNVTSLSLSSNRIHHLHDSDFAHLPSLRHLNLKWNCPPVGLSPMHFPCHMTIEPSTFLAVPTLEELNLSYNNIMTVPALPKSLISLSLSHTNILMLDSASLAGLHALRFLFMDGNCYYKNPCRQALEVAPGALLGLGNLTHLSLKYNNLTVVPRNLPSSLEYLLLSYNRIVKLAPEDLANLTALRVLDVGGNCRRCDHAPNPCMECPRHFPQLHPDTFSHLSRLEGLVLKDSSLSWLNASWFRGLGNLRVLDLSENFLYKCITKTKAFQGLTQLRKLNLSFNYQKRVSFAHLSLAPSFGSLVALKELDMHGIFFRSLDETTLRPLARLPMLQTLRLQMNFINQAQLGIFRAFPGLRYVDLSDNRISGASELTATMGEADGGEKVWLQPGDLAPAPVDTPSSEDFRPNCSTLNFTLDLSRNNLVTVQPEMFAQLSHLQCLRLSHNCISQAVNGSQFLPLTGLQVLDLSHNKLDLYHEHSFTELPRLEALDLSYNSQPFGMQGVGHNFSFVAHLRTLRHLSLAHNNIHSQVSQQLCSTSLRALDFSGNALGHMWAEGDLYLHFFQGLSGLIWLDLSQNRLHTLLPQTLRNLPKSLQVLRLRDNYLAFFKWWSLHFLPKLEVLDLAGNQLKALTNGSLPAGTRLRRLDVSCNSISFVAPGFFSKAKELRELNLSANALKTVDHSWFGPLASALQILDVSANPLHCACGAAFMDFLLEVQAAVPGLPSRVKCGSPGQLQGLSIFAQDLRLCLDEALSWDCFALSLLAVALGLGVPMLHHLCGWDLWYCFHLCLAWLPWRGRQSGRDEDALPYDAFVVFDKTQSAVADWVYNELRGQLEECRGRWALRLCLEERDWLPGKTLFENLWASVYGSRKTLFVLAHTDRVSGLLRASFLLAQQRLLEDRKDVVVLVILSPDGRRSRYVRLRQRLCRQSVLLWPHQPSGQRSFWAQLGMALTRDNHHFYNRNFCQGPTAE
Summary of the method: as §1

[3] = biological target: T3, human TLR7 (Homo sapiens, UniProt Q9NYK1); assay: TLR7 inhibition reporter assay (HEK-Blue cells, SEAP reporter, gardiquimod stimulation); details: HEK-Blue cells overexpressing human TLR7, SEAP reporter, gardiquimod 7.5 μM
T3 construct: host or cells: HEK-Blue cells
T3 sequence (Q9NYK1 27-1049): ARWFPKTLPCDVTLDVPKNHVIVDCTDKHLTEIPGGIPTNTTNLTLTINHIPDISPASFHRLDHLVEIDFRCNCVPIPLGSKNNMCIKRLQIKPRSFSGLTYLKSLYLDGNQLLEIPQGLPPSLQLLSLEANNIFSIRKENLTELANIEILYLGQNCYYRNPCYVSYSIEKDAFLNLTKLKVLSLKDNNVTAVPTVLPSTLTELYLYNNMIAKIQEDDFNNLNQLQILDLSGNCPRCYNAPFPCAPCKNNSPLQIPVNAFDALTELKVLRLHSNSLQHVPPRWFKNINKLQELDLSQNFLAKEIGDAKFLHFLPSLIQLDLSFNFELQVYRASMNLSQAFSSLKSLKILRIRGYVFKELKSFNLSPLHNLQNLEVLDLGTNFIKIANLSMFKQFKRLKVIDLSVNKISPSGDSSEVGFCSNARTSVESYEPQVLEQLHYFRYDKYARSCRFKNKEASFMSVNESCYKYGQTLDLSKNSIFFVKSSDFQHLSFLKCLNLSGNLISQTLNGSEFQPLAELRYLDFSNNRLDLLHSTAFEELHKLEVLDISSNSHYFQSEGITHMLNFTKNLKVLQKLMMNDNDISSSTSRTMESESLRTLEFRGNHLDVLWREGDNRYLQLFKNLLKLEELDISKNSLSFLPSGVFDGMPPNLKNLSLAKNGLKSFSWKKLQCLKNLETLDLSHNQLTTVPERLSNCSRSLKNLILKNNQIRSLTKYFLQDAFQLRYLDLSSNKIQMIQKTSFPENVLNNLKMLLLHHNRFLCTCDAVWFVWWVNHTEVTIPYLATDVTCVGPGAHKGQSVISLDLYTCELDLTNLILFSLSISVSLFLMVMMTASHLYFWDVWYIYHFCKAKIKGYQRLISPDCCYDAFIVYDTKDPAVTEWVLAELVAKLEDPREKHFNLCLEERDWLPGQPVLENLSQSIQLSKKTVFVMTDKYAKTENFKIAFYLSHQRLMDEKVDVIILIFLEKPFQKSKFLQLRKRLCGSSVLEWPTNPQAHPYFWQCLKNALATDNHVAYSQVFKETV
Summary of the method: as §1

Row | SMILES | IC50 [1] | IC50 [2] | IC50 [3]
1 | COc1cc(-c2[nH]c3ccc(C4CC(NC5COC5)C4)cc3c2C(C)C)cn2ncnc12 (stereo not drawn) [Example 579] | 0.73 nM | 7410 nM | 1 nM
2 | Cc1c(-c2[nH]c3ccc(C4CC(N(C)CCS(C)(=O)=O)C4)cc3c2C(C)C)cn2ncnc2c1C (stereo not drawn) [Example 582] | 0.56 nM | 35700 nM | 3 nM
3 | COc1cc(-c2[nH]c3ccc(C4CC(N(C)CCS(C)(=O)=O)C4)cc3c2C(C)C)cn2ncnc12 (stereo not drawn) [Example 583] | 0.32 nM | 31000 nM | 0.99 nM
4 | Cc1c(-c2[nH]c3ccc(C4CC(N(C)C(=O)CN(C)C)C4)cc3c2C(C)C)cn2ncnc2c1C (stereo not drawn) [Example 584] | 3.8 nM | 5650 nM | 2 nM
5 | COc1cc(-c2[nH]c3ccc(C4CC(N(C)C(=O)CN(C)C)C4)cc3c2C(C)C)cn2ncnc12 (stereo not drawn) [Example 585] | 2.9 nM | 2810 nM | 0.55 nM
6 | Cc1c(-c2[nH]c3ccc(C4CC(N(C)CCS(C)(=O)=O)C4)cc3c2C(C)C)cn2ncnc2c1C (stereo not drawn) [Example 586] | 3.8 nM | 44000 nM | 13 nM
7 | COc1cc(-c2[nH]c3ccc(C4CC(N(C)CCS(C)(=O)=O)C4)cc3c2C(C)C)cn2ncnc12 (stereo not drawn) [Example 587] | 5.7 nM | 21300 nM | 5 nM
8 | COc1cc(-c2[nH]c3ccc(C4CC(N(C)C(=O)CN(C)C)C4)cc3c2C(C)C)cn2ncnc12 (stereo not drawn) [Example 588] | 1.4 nM | 1870 nM | 0.4 nM
9 | Cc1c(-c2[nH]c3ccc(C4CC(N(C)C(=O)CN(C)C)C4)cc3c2C(C)C)cn2ncnc2c1C (stereo not drawn) [Example 589] | 2.8 nM | 5410 nM | 2 nM
10 | Cc1cc(-c2[nH]c3ccc(C4CCNC4)cc3c2C(C)C)cc(C)n1 (stereo not drawn) [Example 590] | 0.5 nM | 930 nM | 5 nM
11 | Cc1cc(-c2[nH]c3ccc(C4CCN(C(=O)CN(C)C)C4)cc3c2C(C)C)cc(C)n1 (stereo not drawn) [Example 591] | 8.7 nM | 1010 nM | 8 nM
12 | COc1ccc(-c2[nH]c3ccc(C4CCCNC4)cc3c2C(C)C)cc1OC (stereo not drawn) [Example 592] | 10 nM | 1470 nM | 31 nM
